Assay results as given in patent US20050197371A1, “Urea derivatives as PDGFR modulators” (Ambit Biosciences Corporation, priority 2003, published 2005).

Molecular target: T1, PDGFRB(DKIN) (PDGFR-β) (Homo sapiens, UniProt P09619)
T1 construct: PDGFRB(DKIN)
Assay: Phage-display competitive binding assay, PDGFRB(DKIN)
Settings: T7 phage displaying human PDGFR-β, DKIN construct; read-out: Binding Assay: PDGFRB(DKIN)
Experimental: The term “ND” represents non-determined values.
Briefly, T7 phage displaying human PDGFR-β were incubated with an affinity matrix coated with known PDGFR-β inhibitor in the presence of various concentrations of the soluble competitor molecules.

Row | Compound | Kd
1 | CC(C)(C)c1cc(NC(=O)Nc2ccc(NC(=O)CCc3ccccc3)cc2)no1 [Compound N96] | 0.1 to 1 µM
2 | Cc1ccc(-n2nc(C(C)(C)C)cc2NC(=O)Nc2ccc(Cl)cc2)cc1 [Compound H14] | 0.1 to 1 µM
3 | COc1cc(NC(=O)CCC(=O)N2CCNC(=O)CC2)ccc1NC(=O)Nc1cc(C(C)(C)C)on1 [Compound N172] | 1 to 10 µM
4 | Cc1nc(C(=O)Nc2ccc(NC(=O)Nc3cc(C(C)(C)C)on3)cc2)c(C(F)(F)F)o1 [Compound N55] | 0.1 to 1 µM
5 | CC(C)(C)c1cc(NC(=O)Nc2ccc(NC(=O)c3ccccc3O)cc2)no1 [Compound N69] | 1 to 10 µM
6 | CC(C)(C)c1cc(NC(=O)Nc2ccc(NC(=O)c3nnsc3Oc3ccc(Cl)cc3)cc2)no1 [Compound N71] | 1 to 10 µM
7 | CC(C)(C)c1cc(NC(=S)Nc2ccc(N3CCOCC3)cc2)no1 [Compound F1, 1-(5-tert-butylisoxazol-3-yl)-3-(4-morpholinophenyl)thiourea] | > 10 µM
8 | CC(C)(C)c1cc(NC(=O)Nc2ccc(NS(=O)(=O)c3ccccc3)cc2)no1 [Compound V1] | 1 to 10 µM
9 | COc1cc2nc(Cl)nc(Nc3ccc(NC(=O)Nc4cc(C(C)(C)C)on4)cc3)c2cc1OC [Compound O1, 1-(4-(2-chloro-6,7-dimethoxyquinazolin-4-ylamino)phenyl)-3-(5-tert-butylisoxazol-3-yl)urea] | 0.1 to 1 µM
10 | CC(C)(C)c1ccc(NC(=O)Nc2cc(C(C)(C)C)no2)cc1 [Compound A16] | 0.1 to 1 µM
11 | CC(C)(C)c1cc(NC(=O)Nc2ccc(NC(=O)c3cc(O)c4cccc(O)c4n3)cc2)no1 [Compound N176] | 1 to 10 µM
12 | CC(C)(C)c1cc(NC(=O)Nc2ccc(OCc3ccc(OC(F)(F)F)cc3)cc2)no1 [Compound G5] | < 0.1 µM
13 | CC(C)(C)c1cc(NC(=O)Nc2ccc(NC(=O)c3c(Cl)cccc3Cl)cc2)no1 [Compound N94] | 0.1 to 1 µM
14 | CC(C)(C)c1cc(NC(=O)Nc2ccc(Cl)cc2Cl)no1 [Compound A7] | 1 to 10 µM
15 | CC(C)(C)c1cc(NC(=O)Nc2ccc(Oc3ccccc3)cc2)no1 [Compound A24] | 0.1 to 1 µM
16 | Cc1ccc(-n2nc(C(C)(C)C)cc2NC(=O)Nc2ccc(OCCN3CCOC(CO)C3)c3ccccc23)cc1 (stereo not drawn) [Compound G38] | 0.1 to 1 µM
17 | Cc1nc(N)cc(Nc2ccc(NC(=O)Nc3cc(C(C)(C)C)on3)cc2)n1 [Compound O10] | 0.1 to 1 µM
18 | O=C(Nc1ccc(OCc2ccccc2)cc1)Nc1cc(C2CC2)nn1-c1ccccc1 [Compound H8] | 0.1 to 1 µM
19 | CC(C)(C)c1cc(NC(=O)Nc2ccc(NC(=O)c3ccc(Cl)nc3)cc2)no1 [Compound N125] | 0.1 to 1 µM
20 | CC(C)(C)c1cc(NC(=O)Nc2ccc(NC(=O)c3cccc4cccnc34)cc2)no1 [Compound N115] | < 0.1 µM
21 | COc1ccc(N(N)C(=O)Nc2cc(C(C)(C)C)on2)cc1 [Compound J14] | > 10 µM
22 | CC(C)(C)c1cc(NC(=O)Nc2ccc(C(=O)NCc3ccc4c(c3)OCO4)cc2)no1 [Compound N97] | 1 to 10 µM
23 | CC(C)(C)c1cc(NC(=O)Nc2ccc(OCc3ccccc3F)cc2)no1 [Compound G12, 1-(4-(2-fluorobenzyloxy)phenyl)-3-(5-tert-butylisoxazol-3-yl)urea] | < 0.1 µM
24 | CC(C)(C)c1cc(NC(=O)Nc2ccc(NC(=O)c3cnc(Cl)c(Cl)c3)cc2)no1 [Compound N123] | 1 to 10 µM
25 | CC(C)(C)c1cc(NC(=O)Nc2ccc(NC(=O)c3csc(-c4ccncc4)n3)cc2)no1 [Compound N16] | < 0.1 µM
26 | CC1CCCN(CCOc2ccc(NC(=O)Nc3cc(C(C)(C)C)on3)cc2)C1 (stereo not drawn) [Compound G44] | > 10 µM

Row | Compound | Kd
27 | Cc1cccnc1C(=O)Nc1ccc(NC(=O)Nc2cc(C(C)(C)C)on2)cc1 [Compound N41] | < 0.1 µM
28 | CC(C)(C)c1cc(NC(=O)Nc2ccc(C(=O)Nc3ccccc3)cc2)no1 [Compound N90] | 0.1 to 1 µM
29 | COc1cccc(CNC(=O)Nc2cc(C(C)(C)C)on2)c1 [Compound B3] | 0.1 to 1 µM
30 | COc1cc(OC)nc(Nc2cccc(C(=O)Nc3ccc(NC(=O)Nc4cc(C(C)(C)C)on4)cc3)c2)n1 [Compound N49] | 0.1 to 1 µM
31 | CC(C)(C)c1cc(NC(=O)Nc2ccc(OCc3cccc(F)c3)cc2)no1 [Compound G14] | < 0.1 µM
32 | CC(C)(C)c1cc(NC(=O)Nc2ccc(NC(=O)/C=C/c3ccccc3Cl)cc2)no1 [Compound N40] | 0.1 to 1 µM
33 | O=C(Nc1ccc(Cl)cc1)Nc1cc(C(F)(F)F)cc(Cl)n1 [Compound Z76] | > 10 µM
34 | CC(C)(C)c1cc(NC(=O)Nc2ccc(OCc3ccccc3)cc2)on1 [Compound G30] | < 0.1 µM
35 | COc1cc(OC)nc(Oc2ccccc2C(=O)Nc2ccc(NC(=O)Nc3cc(C(C)(C)C)on3)cc2)n1 [Compound N70] | 1 to 10 µM
36 | C=C/C(=C\C=C\Cl)NC(=O)Nc1ccc(C(=O)OCCOC)cc1 [Compound Z54] | 1 to 10 µM
37 | COc1ccc(N(C)C(=O)Nc2cc(C(C)(C)C)on2)cc1 [Compound J10] | < 0.1 µM
38 | CC(C)(C)c1cc(NC(=O)Nc2ccc(NC(=O)C3=NCC=N3)cc2)no1 [Compound N13] | < 0.1 µM
39 | CC(C)(C)c1cc(NC(=O)Nc2ccc(NC(=O)c3nnsc3Sc3ccc(C(F)(F)F)cc3)cc2)no1 [Compound N179] | 0.1 to 1 µM
40 | CC(C)(C)c1cc(NC(=O)Nc2ccc(OCCN3CCOCC3)c3ccccc23)no1 [Compound A36] | 1 to 10 µM
41 | Cn1nc(-c2ccccc2)c(C(=O)Nc2ccc(NC(=O)Nc3cc(C(C)(C)C)on3)cc2)c1Cl [Compound N11] | > 10 µM
42 | CC(C)(C)c1cc(NC(=O)Nc2ccc(OCc3c(F)cccc3F)cc2)no1 [Compound G21] | < 0.1 µM
43 | Cc1ccc(-n2nc(C(C)(C)C)cc2NC(=O)Nc2cc(C(C)(C)C)on2)cc1 [Compound H11] | 1 to 10 µM
44 | CC(C)c1ccc(NC(=O)Nc2cc(C(C)(C)C)on2)cc1 [Compound A25] | 0.1 to 1 µM
45 | CC(C)(C)c1cc(NC(=O)Nc2ccc(NC(=O)C(N)Cc3ccccc3F)cc2)no1 (stereo not drawn) [Compound N42] | 0.1 to 1 µM
46 | CC(C)(C)c1cc(NC(=O)Nc2ccc(C(=O)NCCO)cc2)no1 [Compound N87] | 0.1 to 1 µM
47 | CC(C)(C)c1cc(NC(=O)Nc2ccc(NC(=O)c3coc(-c4ccc(Cl)cc4)n3)cc2)no1 [Compound N124] | 0.1 to 1 µM
48 | CC(C)(C)c1cc(NC(=O)Nc2ccc(C(=O)Nc3ccc(OCC4CCC4)cc3)cc2)no1 [Compound N100] | 0.1 to 1 µM
49 | CC(C)(C)c1cc(NC(=O)Nc2ccc(S(=O)(=O)Nc3ncccn3)cc2)no1 [Compound V3] | > 10 µM
50 | CC(C)(C)c1cc(NC(=O)Nc2ccc(OCCN3CCOCC3)c3ccccc23)no1 [Compound K1] | 0.1 to 1 µM
51 | CC1CN(CCOc2ccc(NC(=O)Nc3cc(C(C)(C)C)on3)cc2)CCN1 (stereo not drawn) [Compound G46] | 1 to 10 µM
52 | CC(C)(C)c1cc(NC(=O)Nc2ccc(Nc3ccnc(N)n3)cc2)no1 [Compound O7] | 0.1 to 1 µM

Row | Compound | Kd
53 | CC(C)(C)c1cc(NC(=O)Nc2ccc(NC(=O)c3cnc4ccccc4c3)cc2)no1 [Compound N108] | < 0.1 µM
54 | CC(C)(C)c1cc(NC(=O)Nc2ccc(OC(F)F)cc2)no1 [Compound A12] | 0.1 to 1 µM
55 | CC(C)(C)c1cc(NC(=O)Nc2ccc(OCCN3CCC(O)CC3)cc2)no1 [Compound G48] | 1 to 10 µM
56 | CC(C)(C)c1cc(NC(=O)Nc2ccc(OCc3ccc(F)cc3Cl)cc2)no1 [Compound G18] | < 0.1 µM
57 | Cc1cnc(C(=O)Nc2ccc(NC(=O)Nc3cc(C(C)(C)C)on3)cc2)cn1 [Compound O2] | < 0.1 µM
58 | CC(C)(C)c1cc(NC(=O)Nc2ccc(NC(=O)c3cccc4c3OCCO4)cc2)no1 [Compound N111] | 0.1 to 1 µM
59 | COc1cc(OC)nc(Oc2ccccc2C(=O)Nc2ccc(NC(=O)Nc3cc(C(C)(C)C)on3)cc2)n1 [Compound N47] | 0.1 to 1 µM
60 | CN1CN(c2ccc(OCc3ccccc3)cc2)C(=O)N(c2cc(C(C)(C)C)on2)C1 [Compound E4] | 0.1 to 1 µM
61 | CC(C)CCOC(=O)c1nnsc1NC(=O)Nc1ccc(Br)cc1 [Compound Z36] | > 10 µM
62 | CC(=O)NS(=O)(=O)c1ccc(NC(=O)Nc2cc(C(C)(C)C)on2)cc1 [Compound V4] | > 10 µM
63 | CC(C)(C)c1cc(NC(=O)Nc2ccc(Nc3ncnc4[nH]cnc34)cc2)no1 [Compound O3] | < 0.1 µM
64 | CC(C)(C)c1cc(NC(=O)Nc2ccc(NC(=O)c3cnc4cc(C(F)(F)F)ccc4c3O)cc2)no1 [Compound N146] | 1 to 10 µM
65 | Cc1cnc(C(=O)Nc2ccc(NC(=O)Nc3cc(C(C)(C)C)on3)cc2)c(C(=O)O)n1 [Compound N160] | < 0.1 µM
66 | CC(C)(C)c1cc(NC(=O)Nc2ccc(NC(=O)c3cc(Cl)nnc3Cl)cc2)no1 [Compound N174] | 0.1 to 1 µM
67 | CC(C)(C)c1cc(NC(=O)Nc2ccc(NC(=O)c3csc(Cc4cccc(C(F)(F)F)c4)n3)cc2)no1 [Compound N180] | 0.1 to 1 µM
68 | CC(C)(C)c1cc(NC(=O)Nc2ccc(OCCN3CCOCC3)cc2)no1 [Compound G40] | 1 to 10 µM
69 | CC(C)(C)c1cc(NC(=O)Nc2ccc3cc4ccccc4cc3c2)no1 [Compound A18] | 1 to 10 µM
70 | CC(C)(C)c1cc(NC(=O)Nc2ccc(NC(=O)c3cn4cc(Cl)ccc4n3)cc2)no1 [Compound N3] | < 0.1 µM
71 | CC(C)(C)c1cc(NC(=O)Nc2ccc(NC(=O)c3ccc4sccc4c3)cc2)no1 [Compound N122] | < 0.1 µM
72 | Cc1ccc(COc2ccc(NC(=O)Nc3cc(C(C)(C)C)on3)cc2)cc1 [Compound G15] | < 0.1 µM
73 | CC(C)(C)c1cc(NC(=O)Nc2ccc(NC(=O)c3cccc(Br)c3)cc2)no1 [Compound N24] | 1 to 10 µM
74 | NC(=O)c1c(NC(=O)Nc2ccc(Cl)c(Cl)c2)sc2c1CCCC2 [Compound Z56] | > 10 µM
75 | CC(C)(C)c1cc(NC(=O)Nc2ccc(NC(=O)c3cccc(Cl)n3)cc2)no1 [Compound N4] | < 0.1 µM
76 | CC(C)(C)c1cc(NC(=O)Nc2ccc(OC/C=C/c3ccccc3Cl)cc2)no1 [Compound G26] | < 0.1 µM
77 | COc1cc(OC)nc(N(C)c2cccc(C(=O)Nc3ccc(NC(=O)Nc4ccon4)cc3)c2)n1 [Compound N53] | 0.1 to 1 µM
78 | Cc1ccc(-n2nc(C(C)(C)C)cc2NC(=O)Nc2ccc(Br)cc2C(F)(F)F)cc1 [Compound H13] | 1 to 10 µM
